Assay results from the supplement of paper PMC10933113.
Structures can show the parent of a compound that is named as a salt. ± gives the uncertainty stated by the source.

Legend:
[1] = tested on: KeratinoSens (HaCaT ARE-luciferase) cells; experiment: efficacy of ARE luciferase induction relative to DMSO (% activity over DMSO); higher = stronger induction; details: exposure time: 24 h
[2] = tested on: lysine peptide Ac-RFAAKAA-COOH; experiment: efficacy of lysine peptide change (negative = depletion) (% activity); higher = less depletion; details: incubation time: 24 h
[3] = tested on: KeratinoSens (HaCaT ARE-luciferase) cells; experiment: cytotoxicity AC50 (CellTiter-Fluor viability); higher = less cytotoxic; details: exposure time: 24 h
[4] = tested on: cysteine peptide Ac-RFAACAA-COOH; experiment: efficacy of cysteine peptide change (negative = depletion) (% activity); higher = less depletion; details: incubation time: 24 h
[5] = tested on: cysteine peptide Ac-RFAACAA-COOH; experiment: AC50 of cysteine peptide concentration-response (direction given by sign of efficacy); higher = less potent; details: incubation time: 24 h
[6] = tested on: THP-1; experiment: efficacy of IL-8 induction relative to DMSO (% activity); higher = stronger induction; details: exposure time: 18 h
[7] = tested on: KeratinoSens (HaCaT ARE-luciferase) cells; experiment: AC50 of Nrf2/ARE luciferase induction; higher = less potent; details: exposure time: 24 h

Structure (SMILES)	efficacy of ARE luciferase induction [1]	efficacy of lysine peptide change [2]	cytotoxicity AC50 [3] [µM]	efficacy of cysteine peptide change [4]	AC50 [5] [µM]	efficacy of IL-8 induction [6]	AC50 of Nrf2/ARE luciferase induction [7] [µM]
O=[N+]([O-])c1ccc(O/N=C/c2cc(Br)c(O)c(Br)c2)c([N+](=O)[O-])c1 [Bromofenoxim]	12.5 ± 12	62.9 ± 22	34.2 ± 2.2	-97 ± 11	8.35 ± 4.5	0	–
COc1cc(C(C)C)c2c(c1)S(=O)(=O)N(COc1cc(=O)n3cccc(OCCN4CCCCC4)c3n1)C2=O	509 ± 320	-2.72 ± 25	–	17.7 ± 15	–	54.6 ± 30	12.6
CC#Cc1cc(C)nc(Nc2ccccc2)n1 [Mepanipyrim]	73.3 ± 15	48.4 ± 24	–	-2.96 ± 5.1	–	4.67 ± 8.1	47.4
O=CC(=O)c1ccccc1 [Phenyl glyoxal]	522 ± 80	-25.8 ± 6.1	–	-26.9 ± 24	–	0	35.5
COC(=O)Nc1nc2ccc(C(=O)C3CC3)cc2[nH]1 [Cyclobendazole]	21.4 ± 9.4	-14 ± 5.3	3 ± 0.85	-42.3 ± 2.6	10.1 ± 5.7	24.9 ± 13	–
O=C(OCc1ccccc1)c1ccc(O)cc1 [Benzylparaben]	52.2 ± 9.2	90.8 ± 51	–	0	–	0	12.1
O=C(Oc1ccccc1)c1cccc(C(=O)Oc2ccccc2)c1 [Diphenyl isophthalate]	56.2 ± 20	-2 ± 3.5	–	-4.99 ± 8.6	–	0	29.8
Clc1ccccc1-c1nc(-c2ccncc2)no1 [Pifexole]	60.8 ± 7.6	10.5 ± 18	–	3.16 ± 5.5	–	4.35 ± 7.5	11.4
O=C(Nc1ccccc1)c1cc([N+](=O)[O-])ccc1Cl [2-Chloro-5-nitro-N-phenylbenzamide]	92.4 ± 39	58.4 ± 17	–	-15.7 ± 6.5	–	10.4 ± 3	40
O=C(NS(=O)(=O)/C=C/c1ccccc1)c1ccc(F)cc1Cl	82.9 ± 22	67 ± 6.6	–	5 ± 8.7	–	0	38.7
O=C(NS(=O)(=O)/C=C/c1cccs1)c1ccc(F)cc1Br	56.2 ± 110	49.7 ± 18	–	-6.04 ± 5.4	–	4.43 ± 7.7	14.1
O=C(O)c1ccccc1C(=O)Nc1cccc2ccccc12 [Naptalam*]	61.4 ± 78	10.2 ± 26	25.1	-104 ± 4.3	4 ± 1.3	7.99 ± 7	–
C=CC(=O)OCCCCOC(=O)C=C [1,4-Butanediol diacrylate]	336 ± 19	–	43 ± 2.8	–	–	16.2 ± 1.7	35.5
O=C1Nc2ccccc2C1(c1ccc(O)cc1)c1ccc(O)cc1 [Oxyphenisatin]	47.8 ± 12	39.7 ± 4.7	–	-16.7 ± 14	–	0	19
CCCOC/C(=N\c1ccc(Cl)cc1C(F)(F)F)n1ccnc1 [Triflumizole]	134 ± 58	41.1 ± 13	–	4.17 ± 7.2	–	38.3 ± 1.3	63.9
CC[C@@]1(O)C(=O)OCc2c1cc1n(c2=O)Cc2c-1nc1ccccc1c2/C=N/OC(C)(C)C [Gimatecan]	57.7 ± 22	30.4 ± 65	0.99 ± 0.6	-75.2 ± 18	38.5 ± 5.3	24.2 ± 3.5	–

Structure (SMILES)	efficacy of ARE luciferase induction [1]	efficacy of lysine peptide change [2]	cytotoxicity AC50 [3] [µM]	efficacy of cysteine peptide change [4]	AC50 [5] [µM]	efficacy of IL-8 induction [6]	AC50 of Nrf2/ARE luciferase induction [7] [µM]
COP(=S)(Oc1cc(Cl)c(Br)cc1Cl)c1ccccc1 (configuration not stated) [Leptophos]	21.4 ± 11	3.37 ± 19	46.5 ± 3.1	-94.8 ± 3.7	41.6 ± 5.3	33.4 ± 20	–
CC(C)Nc1ccc(Nc2ccccc2)cc1 [N-Isopropyl-N'-phenyl-p-phenylenediamine]	-24.8 ± 11	-5.38 ± 9.3	20.5 ± 6.5	-67.5 ± 20	2.82 ± 1	40.6 ± 19	–
Cc1cc(C2CC2)nc(Nc2ccccc2)n1 [Cyprodinil]	41.8 ± 10	57 ± 8.8	–	6 ± 10	–	2.31 ± 4	35.1
Nc1cc(Cl)ccc1O [2-Amino-4-chlorophenol]	60.7 ± 16	-22.2 ± 9	48.3 ± 3.1	-103 ± 8.1	2.44 ± 1.1	14 ± 3	–
COc1ccc(C(c2ccc(OC)cc2)C(Cl)(Cl)Cl)cc1 [Methoxychlor]	50.9 ± 18	-3.51 ± 15	–	2.72 ± 4.7	–	21.1 ± 3.3	43.2
CC(C)=CCOc1ccc(/C=C/C(=O)c2ccc(OCC=C(C)C)cc2OCC(=O)O)cc1 [Sofalcone]	521 ± 240	-12.4 ± 20	–	54.9	–	0	33
OC12N=C(c3ccccc3)SC1Cc1cc(Cl)ccc12 (configuration not stated) [HMR1426]	86.8 ± 69	–	–	–	–	0	28.9
O=C1C=CC(=O)c2ccccc21 [1,4-NAPHTHOQUINONE*]	-40.2 ± 8.4	-25.7 ± 2.1	8.95 ± 1	-107 ± 5.1	0.53 ± 0.2	37.7 ± 15	–
O=[N+]([O-])c1c(Cl)c(Cl)c(Cl)c(Cl)c1Cl [Pentachloronitrobenzene]	47.4 ± 32	5.1 ± 8.8	–	-3.67 ± 6.3	–	12.2 ± 11	42.1
O=C1OC(OC(=O)c2cccnc2Nc2cccc(C(F)(F)F)c2)c2ccccc21 (configuration not stated) [Talniflumate]	1280 ± 66	85.3 ± 9.9	–	-29.7 ± 11	–	9.09 ± 8.3	35.5
O=C1C(Cl)=C(Cl)C(=O)C(Cl)=C1Cl [Chloranil]	32.8 ± 9.5	-124 ± 7.8	28.2	-73.9 ± 2.3	0.65 ± 0.34	25.9 ± 3.2	–
ClC1=C(Cl)C2(Cl)C3C(Cl)C(Cl)CC3C1(Cl)C2(Cl)Cl (configuration not stated) [Chlordane]	-18.6 ± 53	-2.38 ± 11	41.4 ± 2.8	-56.1 ± 16	50.3 ± 5.8	49.6 ± 10	–
C/C=C1\C(=O)C[C@H]2[C@@H]3CCC4=CC(=O)CC[C@]4(C)[C@H]3CC[C@]12C [Guggulsterone Z]	135 ± 63	11.4 ± 10	–	2.81 ± 4.9	–	7.24 ± 12	53.6
C=CCOC(Cn1ccnc1)c1ccc(Cl)cc1Cl (configuration not stated) [Imazalil sulfate]	40.5 ± 36	166 ± 21	–	38.5 ± 11	–	0	29.9
CC(C)=CCC1=C(O)c2ccccc2C(=O)C1=O [Lapachol]	65.3 ± 5.4	-2.31 ± 13	–	26.5	–	25.8 ± 1.6	26.7
